The assay addresses T1, cathepsin D isolated from the human liver (Homo sapiens, UniProt P07339).
T1 construct: cathepsin D isolated from the human liver (Sigma-Aldrich); purchased Sigma-Aldrich; host or cells: human liver (tissue-derived, not recombinant)
As to the kind of experiment: In-vitro fluorescence assay for identification of cathepsin D inhibitors. In kind it is biochemical. The following applies: human liver cathepsin D 1.4 nM, pH 5.5; read-out: CatD assay IC50-(M). As for the experimental part: EXAMPLE 4: IN-VITRO FLUORESCENCE ASSAY FOR IDENTIFICATION OF CATHEPSIN D INHIBITORS
In order to identify modulators of cathepsin D activity, a continuous enzymatic test was carried out with a synthetic peptide which carries a fluorescent group (MCA=(7-methoxycoumarin-4-yl)acetyl) which is quenched by energy transfer from a Dpn (2,4 dinitrophenyl) group on the same molecule, in Greiner 384-well nb microtitre plates. Cleavage of the peptidic substrate by cathepsin D causes an increase in the fluorescence intensity. In order to determine the efficacy of substances, the time-dependent increase in the fluorescence intensity in the presence of the substance was compared with the time-dependent increase in fluorescence in the absence of substances. The reference substance used was pepstatin A (Sigma-Aldrich). The substrate used was MCA-GKPILFFRLK(Dnp)d-R—NH2 (Enzo Life Sciences, Lörrach). The enzyme employed was cathepsin D isolated from the human liver (Sigma-Aldrich) in a final concentration of 1.4 nM. The test was carried out in 100 mM sodium acetate buffer, 1.25% (v/v) of DMSO, 0.25% (w/v) of Chaps, pH 5.5. 2 μl of each substance solution with serially diluted substance concentration were added to in each case 4 μl of cathepsin D solution and incubated at room temperature for 10 min. The reaction was started by addition of 2 μl of substrate solution (final concentration 5 μM). After carrying out a starting-point fluorescence measurement (excitation wavelength 340 nm/emission wavelength 450 nm) using an Envision multilabel reader (Perkin Elmer), the reaction was incubated at room temperature for 60 min. The amount of peptide fragment cleaved off during the reaction time was subsequently measured by determination of the increase in the fluorescence intensity at 450 nm (excitation wavelength 340 nm).

*1 amine or outer side, *2 acyl side, *3 side chain or, on linkers, in order; H or OH if unused. Where a SMILES comes first, the peptide text is derived from it. [ ]: non-standard residue; d: D form. The star is where a group is joined. Ahppa(3S,4S) = O=C(C[C@H](O)[C@H](Cc1ccccc1)N[*:1])[*:2]; PhAc = O=C(Cc1ccccc1)*

T1 sequence (P07339 65-161 limits assumed): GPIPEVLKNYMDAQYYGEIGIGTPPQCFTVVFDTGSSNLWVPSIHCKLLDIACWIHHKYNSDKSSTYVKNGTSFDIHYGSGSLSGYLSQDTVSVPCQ
T1 sequence (P07339 169-412 limits assumed): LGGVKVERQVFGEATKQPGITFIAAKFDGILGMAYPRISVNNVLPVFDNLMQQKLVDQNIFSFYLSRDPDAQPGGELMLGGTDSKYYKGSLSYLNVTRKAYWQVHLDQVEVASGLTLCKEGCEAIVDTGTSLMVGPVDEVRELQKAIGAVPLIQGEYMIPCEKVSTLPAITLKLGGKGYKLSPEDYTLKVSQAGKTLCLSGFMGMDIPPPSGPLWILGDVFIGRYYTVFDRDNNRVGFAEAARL

As for `CC[C@H](C)[C@H](NC(=O)C[C@H](O)[C@H](Cc1ccccc1)NC(=O)[C@@H](NC(=O)Cc1ccc2ccccc2c1)C(C)C)C(=O)N[C@H](C(=O)O)C(C)C` [Compound 25, (S)-2-((2S,3S)-2-{(3S,4S)-3-hydroxy-4-[(S)-3-methyl-2-(2-naphthalen-2-ylacetylamino)butyrylamino]-5-phenylpentanoylamino}-3-methylpentanoylamino)-3-methylbutyric acid], the IC50 came to 8.1e-09 M. To `CCC(CC)NC(=O)[C@@H](NC(=O)C[C@H](O)[C@H](Cc1ccccc1)NC(=O)[C@@H](NC(=O)[C@H](CC(C)C)NC(=O)Cc1ccccc1)C(C)C)[C@@H](C)CC` [Compound 43, N-[(1S,2S)-1-(1-ethylpropylcarbamoyl)-2-methylbutyl]-(2S,5S)-3-hydroxy-4-[(S)-3-methyl-2-((S)-4-methyl-2-phenylacetylaminopentanoylamino)-1-oxobutylamino]-5-phenylpentanamide] belongs 3.5e-09 M; to `CCC(CC)NC(=O)[C@@H](NC(=O)C[C@H](O)[C@H](Cc1ccccc1)NC(=O)[C@@H](NC(=O)[C@H](CC(C)C)NC(=O)CC(C)C)C(C)C)C(C)C` [Compound 47, N—[(S)-1-(1-ethylpropylcarbamoyl)-2-methylpropyl]-(3S,4S)-3-hydroxy-4-{(S)-3-methyl-2-[(S)-4-methyl-2-(3-methylbutyrylamino)-pentanoylamino]butyrylamino}-5-phenylpentanamide], 6.5e-10 M; to `CC[C@H](C)[C@H](NC(=O)C[C@H](O)[C@H](Cc1ccccc1)NC(=O)[C@@H](NC(=O)COc1ccc(C)c(C)c1)C(C)C)C(=O)N[C@H](C(=O)O)C(C)C` [Compound 29, (S)-2-[(2S,3S)-2-((3S,4S)-4-{(S)-2-[2-(3,4-dimethylphenoxy)acetylamino]-3-methylbutyrylamino}-3-hydroxy-5-phenylpentanoylamino)-3-methylpentanoylamino]-3-methylbutyric acid], 1e-07 M. Turning to `CC[C@H](C)[C@H](NC(=O)C[C@H](O)[C@H](Cc1ccccc1)NC(=O)[C@@H](NC(=O)C(C)(C)Oc1ccc2ccccc2c1)C(C)C)C(=O)N[C@H](C(=O)O)C(C)C` [Compound 6, (S)-2-[(2S,3S)-2-((3S,4S)-3-hydroxy-4-{(S)-3-methyl-2-[2-methyl-2-(naphthalen-2-yloxy)propionylamino]butyrylamino}-5-phenylpentanoylamino)-3-methylpentanoylamino]-3-methylbutyric acid], the IC50 is 2.3e-07 M. To `CCOc1cccc(CC(=O)N[C@H](C(=O)N[C@@H](Cc2ccccc2)[C@@H](O)CC(=O)N[C@H](C(=O)N[C@H](C(=O)OCc2ccccc2)C(C)C)[C@@H](C)CC)[C@@H](C)CC)c1` [Compound 34, benzly (S)-2-[(2S,3S)-2-((3S,4S)-4-{(S)-2-[2-(3-ethoxyphenyl)-acetylamino]-3-methyl-1-(S)-oxopentylamino}-3-hydroxy-5-phenylpentanoylamino)-3-methylpentanoylamino]-3-methylbutyrate] belongs 2.7e-07 M; to `CC[C@H](C)[C@H](NC(=O)C[C@H](O)[C@H](Cc1ccccc1)NC(=O)[C@@H](NC(=O)Cc1cccc(OC)c1)C(C)C)C(=O)N[C@H](C(=O)OCc1ccccc1)C(C)C` [Compound 13, benzly (S)-2-[(2S,3S)-2-((3S,4S)-3-hydroxy-4-{(S)-2-[2-(3-methoxy-phenyl)acetylamino]-3-methylbutyrylamino}-5-phenylpentanoylamino)-3-methylpentanoylamino]-3-methylbutyrate], 2.5e-08 M; to `CC[C@H](C)[C@H](NC(=O)C[C@H](O)[C@H](Cc1ccccc1)NC(=O)[C@@H](NC(=O)Cc1cccc2ccccc12)C(C)C)C(=O)N[C@H](C(=O)OCc1ccccc1)C(C)C` [Compound 21, benzly (S)-2-((2S,3S)-2-{(3S,4S)-3-hydroxy-4-[(S)-3-methyl-2-(2-naphthalen-1-ylacetylamino)butyrylamino]-5-phenylpentanoylamino}-3-methylpentanoylamino)-3-methylbutyrate], 1.2e-06 M.

Regarding `CCC(CC)NC(=O)[C@@H](NC(=O)C[C@H](O)[C@H](Cc1ccccc1)NC(=O)[C@@H](NC(=O)[C@H](CC(C)C)NC(=O)CC(C)C)C(C)C)[C@@H](C)CC` [Compound 42, N-[(1S,2S)-1-(1-ethylpropylcarbamoyl)-2-methylbutyl]-(2S,5S)-3-hydroxy-4-{(S)-3-methyl-2-[(S)-4-methyl-2-(3-methylbutyrylamino)-pentanoylamino]butyrylamino}-5-phenylpentanamide], the half-maximal inhibitory concentration (IC50) was 1.3e-09 M. On to `CC[C@H](C)[C@H](NC(=O)C[C@H](O)[C@H](Cc1ccccc1)NC(=O)[C@@H](NC(=O)Cc1cccc(OCCNC(=O)OC(C)(C)C)c1)[C@@H](C)CC)C(=O)N[C@H](C(=O)O)C(C)C` [Compound 39, (S)-2-{(2S,3S)-2-[(3S,4S)-4-((S)-2-{2-[3-(2-tert-butoxycarbonyl-aminoethoxy)phenyl]acetylamino}-3-methyl-1-(S)-oxopentylamino)-3-hydroxy-5-phenylpentanoylamino]-3-methylpentanoylamino}-3-methylbutyric acid], for which the half-maximal inhibitory concentration (IC50) turned out to be 3.9e-08 M.

For `CCOc1cccc(CC(=O)N[C@H](C(=O)N[C@@H](Cc2ccccc2)[C@@H](O)CC(=O)N[C@H](C(=O)N[C@H](C(=O)O)C(C)C)[C@@H](C)CC)C(C)C)c1` [Compound 17, (S)-2-[(2S,3S)-2-((3S,4S)-4-{(S)-2-[2-(3-ethoxyphenyl)acetylamino]-3-methylbutyrylamino}-3-hydroxy-5-phenylpentanoylamino)-3-methylpentanoylamino]-3-methylbutyric acid], the IC50 stood at 1.55e-08 M.

As to `CC[C@H](C)[C@H](NC(=O)C[C@H](O)[C@H](Cc1ccccc1)NC(=O)[C@@H](NC(=O)Cc1cc(OC(F)(F)F)ccc1OC)C(C)C)C(=O)N[C@H](C(=O)OCc1ccccc1)C(C)C` [Compound 18, benzly (S)-2-[(2S,3S)-2-((3S,4S)-3-hydroxy-4-{(S)-2-[2-(2-methoxy-5-trifluoromethoxyphenyl)acetylamino]-3-methylbutyrylamino}-5-phenylpentanoylamino)-3-methylpentanoylamino]-3-methylbutyrate], the IC50 was 3.4e-08 M. As for `CC[C@H](C)[C@H](NC(=O)C[C@H](O)[C@H](Cc1ccccc1)NC(=O)[C@@H](NC(=O)[C@H](CC(C)C)NC(=O)Cc1ccccc1)C(C)C)C(=O)N[C@H](C(=O)O)C(C)C` [Compound 45, (S)-2-((2S,3S)-2-{(3S,4S)-3-hydroxy-4-[(S)-3-methyl-2-((S)-4-methyl-2-phenylacetylaminopentanoylamino)butyrylamino]-5-phenylpentanoylamino}-3-methylpentanoylamino)-3-methylbutyric acid] (PhAc-LV[Ahppa(3S,4S)]IV-OH), the figure is 3.5e-10 M.

The term IC50 denotes the midpoint of a concentration-inhibition curve.

The values above are taken from US10077288B2, “Hydroxystatin derivatives for the treatment of arthrosis” (Merck Patent GmbH, priority 2012, dated 2018).
